Assay results published in patent publication US20250234864A1 (priority 2022, published 2025).
Where “and” joins values, the source holds several entries; their conditions need not be identical. Equal entries are not always repeated. Where two headings read alike, the source gives them in different places.

Legend:
Pyricularia oryzae [1] = experiment: whole plant or invertebrate; assay type: in vivo; settings: rice seedlings, spray before inoculation; for pest or weed control at 100 ppm: read-out: Control Efficacy, spray concentration 100 ppm; for pest or weed control at 25 ppm: read-out: Control Efficacy, spray concentration 25 ppm; for pest or weed control at 0.01 ppm: read-out: Control Efficacy, spray concentration 0.01 ppm; for pest or weed control at 1 ppm: read-out: Control Efficacy, spray concentration 1 ppm
Pyricularia oryzae [2] = assay type: in vivo; settings: spray after lesions on rice seedlings, two natural infections

Question: `CC(C)(C)C(O)(CCc1ccc(Cl)cc1)Cn1cncn1` (centres unmarked) [Tebuconazole] was tested. Which pest or weed control at 10 ppm (Pyricularia oryzae [1]; Pyricularia oryzae, read-out: Control Efficacy, spray concentration 10 ppm) did it give?
Answer: Its pest or weed control at 10 ppm is 58%.

Question: What about the “Control Efficacy” value (Pyricularia oryzae [2]; spray concentration 52 ppm) of the same molecule?
Answer: Its value is 63.

Question: For `CC(C1CC1)C(O)(Cn1cncn1)c1ccc(Cl)cc1` (centres unmarked) [Ciproconazole], which “Control Efficacy” value (Pyricularia oryzae [1]; spray concentration 10 ppm) is on record?
Answer: The value was 11.

Question: What does the source list for `CO/C=C(/C(=O)OC)c1ccccc1COc1cccc(C(F)(F)F)n1` [Picoxystrobin]?
Answer: Control Efficacy (Pyricularia oryzae [1]; spray concentration 0.01 ppm): 22; Control Efficacy (Pyricularia oryzae [1]; spray concentration 0.1 ppm): 68

Question: What does the source list for `CCCC1COC(Cn2cncn2)(c2ccc(Cl)cc2Cl)O1` (centres unmarked) [Propiconazole]?
Answer: pest or weed control at 100 ppm (Pyricularia oryzae [1]; Pyricularia oryzae): 72%; Control Efficacy (Pyricularia oryzae [2]; spray concentration 52 ppm): 55

Question: With `CCCCC(O)(Cn1cncn1)c1ccc(Cl)cc1Cl` (centres unmarked) [Hexaconazole] as the molecule, how does the pest or weed control at 25 ppm (Pyricularia oryzae [1]; Pyricularia oryzae) read?
Answer: Its pest or weed control at 25 ppm is 55%.

Question: What about the pest or weed control at 100 ppm (Pyricularia oryzae [1]; Pyricularia oryzae) of the same molecule?
Answer: The pest or weed control at 100 ppm was 86%.

Question: `Cc1nc2c(F)c(F)ccc2cc1Oc1cccc(F)c1C(C)(C)O` [Ipflufenoquin] was tested. Which “Control Efficacy” value (Pyricularia oryzae [1]; spray concentration 0.01 ppm) did it give?
Answer: The value was 0.

Question: And the “Control Efficacy” value (Pyricularia oryzae [1]; spray concentration 0.1 ppm)?
Answer: The value was 76.

Question: `O=C(Nc1ccccc1-c1ccc(F)c(F)c1)c1nccnc1C(F)(F)F` [Pyraziflumid] was tested. Which “Control Efficacy” value (Pyricularia oryzae [1]; spray concentration 10 ppm) did it give?
Answer: The value was 0.

Question: What about the “Control Efficacy” value (Pyricularia oryzae [1]; spray concentration 100 ppm) of the same molecule?
Answer: The value was 56.

Question: `CNC(=O)C(OC)c1ccccc1COc1cc(C)ccc1C` (centres unmarked) [Mandestrobin] was tested. Which “Control Efficacy” value (Pyricularia oryzae [1]; spray concentration 0.1 ppm) did it give?
Answer: The value was 0.

Question: `CC1COC(Cn2cncn2)(c2ccc(Oc3ccc(Cl)cc3)cc2Cl)O1` (centres unmarked) [Diphenoconazole] was tested. Which “Control Efficacy” value (Pyricularia oryzae [1]; spray concentration 50 ppm) did it give?
Answer: The value was 62.

Question: What about the “Control Efficacy” value (Pyricularia oryzae [1]; spray concentration 100 ppm) of the same molecule?
Answer: The value was 86.

Question: For `Cc1nn(C)c(F)c1C(=O)Nc1ccccc1C(C)CC(C)C` (centres unmarked) [Penflufen], which “Control Efficacy” value (Pyricularia oryzae [1]; spray concentration 1 ppm) is on record?
Answer: The value was 11.

Question: `CON=C(C(=O)OC)c1ccccc1CON=C(C)c1cccc(C(F)(F)F)c1` [Trifloxystrobin] was tested. Which pest or weed control at 0.01 ppm (Pyricularia oryzae [1]; Pyricularia oryzae) did it give?
Answer: Its pest or weed control at 0.01 ppm is 75%.

Question: Which results are given for `CC(O)(Cn1cncn1)c1ccc(Oc2ccc(Cl)cc2)cc1C(F)(F)F` (centres unmarked) [Mefentrifluconazole]?
Answer: Control Efficacy (Pyricularia oryzae [1]; spray concentration 25 ppm): 35; Control Efficacy (Pyricularia oryzae [1]; spray concentration 100 ppm): 44

Question: Which pest or weed control at 100 ppm (Pyricularia oryzae [1]; Pyricularia oryzae) does the source give for `O=C1CCc2cccc3c2N1CC3` [Pyroquilon] here?
Answer: Its pest or weed control at 100 ppm is 22%.

Question: `COC(=O)N(OC)c1ccccc1COc1ccn(-c2ccc(Cl)cc2)n1` [Pyraclostrobin] was tested. Which pest or weed control at 0.01 ppm (Pyricularia oryzae [1]; Pyricularia oryzae) did it give?
Answer: The pest or weed control at 0.01 ppm was 44%.

Question: What about the pest or weed control at 0.1 ppm (Pyricularia oryzae [1]; Pyricularia oryzae, read-out: Control Efficacy, spray concentration 0.1 ppm) of the same molecule?
Answer: The pest or weed control at 0.1 ppm was 64%.

Question: For `CO/N=C(/C1=NOCCO1)c1ccccc1Oc1ncnc(Oc2ccccc2Cl)c1F` [Fluoxastrobin], which pest or weed control at 0.01 ppm (Pyricularia oryzae [1]; Pyricularia oryzae) is on record?
Answer: Its pest or weed control at 0.01 ppm is 22%.

Question: And the pest or weed control at 1 ppm (Pyricularia oryzae [1]; Pyricularia oryzae)?
Answer: The pest or weed control at 1 ppm was 93%.

Question: For Inpyrfluxam, which “Control Efficacy” value (Pyricularia oryzae [1]; spray concentration 100 ppm) is on record?
Answer: The value was 74.

Question: How did the “Control Efficacy” value (Pyricularia oryzae [1]; spray concentration 10 ppm) turn out when `CC(=O)Oc1c(C)c(C)nc2c(F)cc(C(C)(C)C)cc12` [Tebufloquin] was run?
Answer: Its value is 84 and 76 and 86 and 51 and 48.

Question: And the “Control Efficacy” value (Pyricularia oryzae [1]; spray concentration 20 ppm)?
Answer: The value was 97 and 90 and 70.

Question: And the “Control Efficacy” value (Pyricularia oryzae [2]; spray concentration 83 ppm, lesions on uppermost unfolded leaf of 50 seedlings)?
Answer: The value was 80 and 81.

Question: How did the pest or weed control at 1 ppm (Pyricularia oryzae [1]; Pyricularia oryzae) turn out when `OC(Cc1ccccc1Cl)(Cn1nc[nH]c1=S)C1(Cl)CC1` (centres unmarked) [Prothioconazole] was run?
Answer: The pest or weed control at 1 ppm was 39%.

Question: What about the pest or weed control at 25 ppm (Pyricularia oryzae [1]; Pyricularia oryzae) of the same molecule?
Answer: The pest or weed control at 25 ppm was 82%.

Question: And the pest or weed control at 100 ppm (Pyricularia oryzae [1]; Pyricularia oryzae)?
Answer: Its pest or weed control at 100 ppm is 95%.
